Assays:
Ramos [1] = test: Lymphotoxic activity against immortalized Ramos B cells in culture; assay type: functional, cell-based; conditions: Homo sapiens
Ramos [2] = test: Inhibition of Ramos B cells death in the presence of 20 uM methylating phenol (Compound 20); assay type: functional, Homo sapiens
Ramos [3] = test: Inhibition of Ramos B cells death in the presence of FK506 (1 uM); assay type: functional, Homo sapiens

Row | Compound | EC50 (Ramos [1]) | Inhibition (Ramos [2]) | Inhibition (Ramos [3])
1 | CN1C(=O)C(Cc2cccc(-c3ccccc3)c2)N=C(c2ccc(O)cc2)c2cc(Cl)ccc21 (stereo unspecified) | 4 µM | 81% | 77%
2 | CN1C(=O)C(Cc2ccc3ncccc3c2)N=C(c2ccc(O)cc2)c2cc(Cl)ccc21 (stereo unspecified) | 13 µM | 0% | 20%
3 | CN1C(=O)C(Cc2cccc3ccccc23)N=C(c2ccc(O)cc2)c2cc(Cl)ccc21 (stereo unspecified) | 5 µM | 67% | 72%
4 | Cc1ccc(C)c(CC2N=C(c3ccc(O)cc3)c3cc(Cl)ccc3N(C)C2=O)c1 (stereo unspecified) | 7 µM | 23% | 80%
5 | CN1C(=O)C(Cc2ccc(OC(F)(F)F)cc2)N=C(c2ccc(O)cc2)c2cc(Cl)ccc21 (stereo unspecified) | 30 µM | 0% | 17%
6 | CN1C(=O)C(Cc2cnc3ccccc3c2)N=C(c2ccc(O)cc2)c2cc(Cl)ccc21 (stereo unspecified) | 11 µM | 4% | 39%
7 | CN1C(=O)C(Cc2ccc(C(C)(C)C)cc2)N=C(c2ccc(O)cc2)c2cc(Cl)ccc21 (stereo unspecified) | 3 µM | 55% | 91%
8 | Cc1cc(C2=NC(Cc3ccc4ccccc4c3)C(=O)N(C)c3ccc(Cl)cc32)ccc1O (stereo unspecified) | 3 µM | 87% | 78%
9 | Cc1ccc(CC2N=C(c3ccc(O)cc3)c3cc(Cl)ccc3N(C)C2=O)cc1C (stereo unspecified) | 7 µM | 29% | 78%
10 | CN1C(=O)C(Cc2ccc3ccccc3c2)N=C(c2ccc(N=[N+]=[N-])cc2)c2cc(Cl)ccc21 (stereo unspecified) | > 80 µM | – | –
11 | CN1C(=O)C(Cc2ccc3ccccc3c2)N=C(c2cccc(O)c2)c2cc(Cl)ccc21 (stereo unspecified) | 6 µM | 0% | 70%
12 | CCC(C)N(C)C(=O)c1cc2ccccc2c(-c2ccccc2Cl)n1 (stereo unspecified) [PK-11195] | > 80 µM | – | –
13 | CN1C(=O)C(Cc2ccc(-c3ccccc3)cc2)N=C(c2ccc(O)cc2)c2cc(Cl)ccc21 (stereo unspecified) | 7 µM | 69% | 74%
14 | COc1ccc(C2=NC(Cc3ccc4ccccc4c3)C(=O)N(C)c3ccc(Cl)cc32)cc1 (stereo unspecified) | > 80 µM | – | –
15 | CN1C(=O)C(Cc2cc3ccccc3cn2)N=C(c2ccc(O)cc2)c2cc(Cl)ccc21 (stereo unspecified) | 10 µM | 0% | 42%
16 | CN1C(=O)CN=C(c2ccc(Cl)cc2)c2cc(Cl)ccc21 [RO-54864] | > 80 µM | – | –
17 | CN1C(=O)C(Cc2ccccc2)N=C(c2ccc(O)cc2)c2cc(Cl)ccc21 (stereo unspecified) | 12 µM | 0% | 4%
18 | CN1C(=O)C(Cc2ccc(F)c(F)c2)N=C(c2ccc(O)cc2)c2cc(Cl)ccc21 (stereo unspecified) | 10 µM | 0% | 59%
19 | CN1C(=O)C(Cc2ccc3ccccc3c2)N=C(c2ccc(Cl)cc2)c2cc(Cl)ccc21 (stereo unspecified) | > 80 µM | – | –
20 | CN1C(=O)C(Cc2cccc(O)c2)N=C(c2ccc(O)cc2)c2cc(Cl)ccc21 (stereo unspecified) | 22 µM | 20% | 14%
21 | CN1C(=O)CN=C(c2ccccc2)c2cc(Cl)ccc21 [DIAZEPAM] | > 80 µM | – | –
